Like-named read-outs stand apart in the source and are kept apart here.
Target: T1, mGluR2 receptor (metabotropic glutamate receptor 2) (Homo sapiens, UniProt Q14416)
T1 construct: expressed in transfected cells
Test: mGluR2 Potentiator Screen, FLIPR, EC10-EC20 glutamate challenge
Assay type: cell-based
Conditions: read-out: EC50
Method: Procedure for mGluR2 Potentiator Screen NLB Methods EC10-EC20 Challenge Cell Culture and Plating:
Cells used for this screen are HEK cells stably transfected with the mGluR2 receptor (metabotropic glutamate receptor 2) and the Gα15 G protein. Clones were identified by functional activity (FLIPR). Cells are grown in growth media containing: DMEM High Glucose with Glutamine and Na Pyruvate (GIBCO), 10% (v/v) Heat inactivate FBS (GIBCO) G418 500 ug/ml (from 50 mg/ml stock) (GIBCO) and Blasticidin 3 ug/ml (from 5 mg/ml stock made in H2O) (Invitrogen).
2 days before the assay cell are trypsinized with 0.25% trysin/EDTA (GIBCO), spun down at 1000 rpm for 5 minutes, resuspended in growth media and plated on polystyrene 384 well black wall/clear bottom poly-D-lysine coated plates at a density of approximately 18,000 cells/well in a volume of 50 μL per well. One day before the assay the growth media is removed from the plates by flicking and replaced with media containing DMEM High Glucose without Glutamine and Na Pyruvate (GIBCO) and 10% (v/v) dialyzed FBS (GIBCO). The reason for the removal of glutamine the day before the assay is to minimize the amount of glutamate that will be present during the assay, as endogenous glutarnate released from the cells can reduce the fluorescent response and interfere with the FLIPR screen.
FLIPR Methods and Data Analysis:
On the day of the assay, the FLIPR assay is performed using the following methods:
The pH is adjusted to 7.4 with 1M NaOH. Prepare a 2 mM (approx.) stock solution of Fluo-4.am (Molecular Probes) dye in DMSO −22 μl DMSO per 50 ug vial (440 μL per 1 mg vial). Make a 1 mM (approx.) flou-4, PA working solution per vial by adding 22 μl of 20% pluronic acid (PA) (Molecular Probes) in DMSO to each 50 ug vial (440 μL per 1 mg vial). Prepare a 250 mM Probenecid (Sigma) stock solution by dissolving 0.71 g into 5 ml 1N NaOH and 5 ml assay buffer (for each liter of assay wash buffer). Make 4 uM (approx.) dye incubation media by adding 2.50 ug vials per 11 ml DMEM high glucose without glutamine (220 ml per 1 mg vial). Add 110 μL probenecid stock per 11 ml (2.5 mM final [concentration]). To the dye media add 3 units/ml of glutamic-pyruvic transaminase (GPT, Sigma) and 3 mM Na Pyruvate. The assay has worked with dye concentrations from 2 uM to 8 uM dye as well. To the assay buffer from drug preparation, add 1.83 mls DMSO and 400 μL. 15.8% P104 (from New Leads biology) per liter for final concentrations of 0.18% DMSO and 0.006% P104. To the assay buffer for cell washing, add probenecid in the same manner and concentration that was used for the dye media.
Remove growth media from cell plates by flicking. Add 50 μl/well dye solution. Incubate 1 hour at 37° C. and 5% CO2. Remove dye solution and wash 3 times with assay buffer+probenecid (100 μl probenecid stock per 10 ml buffer), leaving 30 μL/well assay buffer. Wait at least 10-15 minutes. Compounds and agonist challenge additions are performed with the FLIPR. The in addition is for test compounds, which are added as 15 μL of 4× [concentration] of potentiator. The second 2nd addition is 15 μL of 4× [concentration] of agonist or challenge. This achieves 1× concentration of all compounds only after 2nd addition. The 1st and 2nd additions are performed separately using the FLIPR, which give 2 different data files. Compounds are pretreated at least 30 minutes before agonist addition.
Results are analyzed by dividing the peak fluorescent value of the FLIPR response by the […] to achieve a ratio response. The ratios are then analyzed by curve fitting programs. Since potent compounds can give an inverted U dose response curve (due to effects on endogenous glutamate by the potentiators) points are deleted at concentrations higher than the concentration that gives the maximum effect. Maximum values for dose response curves (forced fitting) are derived from standards on the plate.
Compound Preparation and Glutamate Challenge: […]

T1 sequence (Q14416 19-872, species assumed): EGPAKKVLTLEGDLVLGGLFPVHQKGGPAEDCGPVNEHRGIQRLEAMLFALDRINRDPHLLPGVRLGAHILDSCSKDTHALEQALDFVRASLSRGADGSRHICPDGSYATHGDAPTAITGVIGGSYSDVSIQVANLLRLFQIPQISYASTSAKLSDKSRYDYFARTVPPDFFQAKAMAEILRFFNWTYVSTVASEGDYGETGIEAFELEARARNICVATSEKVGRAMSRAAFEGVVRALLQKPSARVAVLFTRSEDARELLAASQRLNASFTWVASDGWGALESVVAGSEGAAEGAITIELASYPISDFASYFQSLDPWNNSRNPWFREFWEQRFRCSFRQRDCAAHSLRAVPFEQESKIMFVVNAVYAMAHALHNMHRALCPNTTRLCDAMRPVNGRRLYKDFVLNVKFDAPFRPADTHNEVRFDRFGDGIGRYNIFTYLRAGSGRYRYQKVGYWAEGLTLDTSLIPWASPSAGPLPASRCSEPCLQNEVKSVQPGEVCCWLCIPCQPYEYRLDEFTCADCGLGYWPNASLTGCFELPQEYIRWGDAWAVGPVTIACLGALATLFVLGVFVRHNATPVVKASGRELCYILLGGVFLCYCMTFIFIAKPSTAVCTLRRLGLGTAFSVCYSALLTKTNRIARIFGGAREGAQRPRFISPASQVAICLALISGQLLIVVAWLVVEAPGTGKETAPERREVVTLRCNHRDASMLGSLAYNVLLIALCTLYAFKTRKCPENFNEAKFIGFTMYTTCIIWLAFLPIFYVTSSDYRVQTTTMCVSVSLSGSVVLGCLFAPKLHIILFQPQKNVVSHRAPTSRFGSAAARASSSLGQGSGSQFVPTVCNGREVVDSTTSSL

Row | Compound | EC50 [nM] | EC50 (listed as 9) [nM]
1 | 2-(2-((4-(2-fluorophenyl)piperidin-1-yl)methyl)-1-methyl-1H-benzo[d]imidazol-5-yl)propan-2-ol [Entry 298] | 2530 | 
2 | 2-((4-(2-Fluorophenyl)piperidin-1-yl)methyl)-1-methyl-1H-benzo[d]imidazol-5-carboxamide [Entry 363] | 5210 | 
3 | 2-((4-(2-Fluorophenyl)piperidin-1-yl)methyl)-1-methyl-1H-benzo[d]imidazole-5-carbonitrile [Entry 272] | 439 | 
4 | 2-((4-(2-Fluorophenyl)piperidin-1-yl)methyl)-1-methyl-6-phenyl-1H-benzo[d]imidazole [Entry 276] | 3100 | 
5 | 2-((4-(2-Fluorophenyl)piperidin-1-yl)methyl)-3-methyl-3H-benzo[d]imidazole-5-carbonitrile [Entry 275] | 2620 | 
6 | 2-((4-(2-fluorophenyl)piperidin-1-yl)methyl)-6-methoxy-1-methyl-1H-benzo[d]imidazole [Entry 278] | 1620 | 
7 | 2-[4-(2-Methoxy-phenyl)-piperidin-1-ylmethyl]-1-methyl-1H-benzoimidazol-4-ylamine [Entry 264] | 5210 | 
8 | 2-[4-(2-Methoxy-phenyl)-piperidin-1-ylmethyl]-1-methyl-1H-benzoimidazole-5-carboxylic acid [Entry 288] | 569 | 
9 | 2-{[Cis-4-(3,4-Difluoro-phenyl)-3-methyl-piperidin-1-yl]methyl}-1-methyl-1H-benzoimidazole [Entry 462] | 1810 | 
10 | 4-Fluoro-2-((4-(2-Fluorophenyl)piperidin-1-yl)methyl)-1-methyl-1H-benzo[d]imidazole [Entry 325] | 97.9 | 
11 | 5-(2-Methoxy-phenyl)-1-(1-methyl-1H-benzoimidazol-2-ylmethyl)-azepan-2-one [Entry 291] | 916 | 
12 | C[C@@H]1CN(Cc2nc3ccccc3n2C)CC[C@@H]1c1ccc(F)c(F)c1 (racemic) [Entry 462, 2-{[Cis-4-(3,4-Difluoro-phenyl)-3-methyl-piperidin-1-yl]methyl}-1-methyl-1H-benzoimidazole] | 241 | 
13 | COCCn1c(CN2CC[C@H](c3ccccc3OC)[C@H](C)C2)nc2ccccc21 (relative stereo) [compound 336] | 2360 | 
14 | COc1ccccc1[C@H]1CCN(Cc2nc3ccccc3n2C)C[C@H]1C (relative stereo) [compound 337] | 323 | 
15 | COc1ccccc1[C@H]1CCN(Cc2nc3ccccc3n2C2CC2)C[C@H]1C (relative stereo) [compound 338] | 1450 | 
16 | COc1ccccc1[C@H]1CCN(Cc2nc3ccccc3n2CCF)C[C@H]1C (relative stereo) [compound 339] | 604 | 
17 | C[C@@H]1CN(Cc2nc3ccccc3n2C)CC[C@@H]1c1ccc(C(F)(F)F)cc1 (relative stereo) [compound 404] | 471 | 
18 | C[C@@H]1CN(Cc2nc3ccccc3n2C)CC[C@@H]1c1ccccc1F (relative stereo) [compound 405] | 124 | 
19 | C[C@@H]1CN(Cc2nc3ccccc3n2C)CC[C@@H]1c1ccc(F)c(Cl)c1 (relative stereo) [compound 456] | 181 | 
20 | C[C@H]1C[C@@H](c2ccc(C(F)(F)F)cc2)CCN1Cc1nc2ccccc2n1C (relative stereo) [compound 457] | 454 | 

Row | Compound | EC50 [nM] | EC50 (listed as 9) [nM]
21 | COc1cc(C(F)(F)F)ccc1[C@H]1CCN(Cc2nc3ccccc3n2C)C[C@H]1C (relative stereo) [compound 459] | 128 | 
22 | C[C@@H]1CN(Cc2nc3ccccc3n2C)CC[C@@H]1c1ccc(Cl)cc1F (relative stereo) [compound 461] | 30.3 | 
23 | C[C@@H]1CN(Cc2nc3ccccc3n2C)CC[C@@H]1c1ccc(F)cc1F (relative stereo) [compound 463] | 40.7 | 
24 | COc1cc(F)ccc1[C@H]1CCN(Cc2nc3ccccc3n2C)C[C@H]1C (relative stereo) [compound 464] | 125 | 
25 | C[C@@H]1CN(Cc2nc3ccccc3n2C)CC[C@@H]1c1ccc(C(F)(F)F)c(F)c1 (relative stereo) [compound 465] | 375 | 
26 | C[C@@H]1CN(Cc2nc3ccccc3n2C)CC[C@@H]1c1ccc(C(F)(F)F)cc1C(F)(F)F (relative stereo) [compound 466] | 161 | 
27 | C[C@@H]1CN(Cc2nc3ccccc3n2C)CC[C@@H]1c1ccc(C(F)(F)F)cc1Cl (relative stereo) [compound 467] | 53.1 | 
28 | C[C@@H]1CN(Cc2nc3ccccc3n2C)CC[C@@H]1c1ccc(Cl)cc1Cl (relative stereo) [compound 468] | 86.2 | 
29 | Cc1cc(Cl)ccc1[C@H]1CCN(Cc2nc3ccccc3n2C)C[C@H]1C (relative stereo) [compound 469] | > 351 | 
30 | C[C@@H]1CN(Cc2nc3ccccc3n2C)CC[C@@H]1c1ccc(F)c(F)c1 (single isomer, unassigned) [Entry 472, 2-{[Cis-4-(3,4-Difluoro-phenyl)-3-methyl-piperidin-1-yl]methyl}-1-methyl-1H-benzoimidazole] | 152 | 
31 | C[C@@H]1CN(Cc2nc3ccccc3n2C)CC[C@@H]1c1ccc(F)c(F)c1 (single isomer, unassigned) [Entry 473, 2-{[Cis-4-(3,4-Difluoro-phenyl)-3-methyl-piperidin-1-yl]methyl}-1-methyl-1H-benzoimidazole] | 1030 | 
32 | CN1CC2(CCN(Cc3nc4ccccc4n3C)CC2)c2cc(Br)ccc21 [Entry 104, 5-Bromo-1-methyl-1'-[(1-methyl-1H-benzimidazole-2-yl)methyl]-1,2-dihydrospiro[indole-3,4'-piperidine]] | 1410 | 
33 | Cn1c(CN2CCC(c3ccccc3F)CC2)nc2cc(C#N)ccc21 [Entry 272, 2-((4-(2-Fluorophenyl)piperidin-1-yl)methyl)-1-methyl-1H-benzo[d]imidazole-5-carbonitrile] | 73 | 
34 | Cn1c(CN2CCC(c3ccccc3F)CC2)nc2ccc(C#N)cc21 [Entry 275, 2-((4-(2-Fluorophenyl)piperidin-1-yl)methyl)-3-methyl-3H-benzo[d]imidazole-5-carbonitrile] | 211 | 
35 | Cn1c(CN2CCC(c3ccccc3F)CC2)nc2ccc(-c3ccccc3)cc21 [Entry 276, 2-((4-(2-Fluorophenyl)piperidin-1-yl)methyl)-1-methyl-6-phenyl-1H-benzo[d]imidazole] | 204 | 
36 | COc1ccc2nc(CN3CCC(c4ccccc4F)CC3)n(C)c2c1 [Entry 278, 2-((4-(2-fluorophenyl)piperidin-1-yl)methyl)-6-methoxy-1-methyl-1H-benzo[d]imidazole] | 46.6 | 
37 | Cc1ccc2nc(CN3CCC(c4ccccc4F)CC3)n(C)c2c1 [Entry 279] | 327 | 2170
38 | COc1ccccc1C1CCN(Cc2nc3cc(C(=O)O)ccc3n2C)CC1 [Entry 288, 2-[4-(2-Methoxy-phenyl)-piperidin-1-ylmethyl]-1-methyl-1H-benzoimidazole-5-carboxylic acid] | 1680 | 
39 | COc1ccccc1C1CCC(=O)N(Cc2nc3ccccc3n2C)CC1 (centres unmarked) [Entry 291, 5-(2-Methoxy-phenyl)-1-(1-methyl-1H-benzoimidazol-2-ylmethyl)-azepan-2-one] | 4660 | 
40 | Cn1c(CN2CCC(c3ccccc3F)CC2)nc2cc(CO)ccc21 [Entry 297, (2-((4-(2-Fluorophenyl)piperidin-1-yl)methyl)-1-methyl-1H-benzo[d]imidazol-5-yl)methanol] | 169 | 

— patent US20080280933A1, “BENZIMIDAZOLYL COMPOUNDS” (priority 2006, published 2008)
